Laboratory results from patent US20250161238A1, “NMDAR Antagonists Prevent Ageing and Aging-Associated Conditions and Diseases Through Increasing 20S Proteasome Activity” (priority 2022, published 2025).

How the values were obtained:
26S proteasome = biological target: T1, 26S proteasome (Homo sapiens, UniProt P28072+P28074+Q99436); assay: Proteasome activity assay with cell lysate and fluorogenic substrates; assay type: biochemical; conditions: cell lysate
T1 construct: endogenous in cells; host or cells: crude cell lysate
T1 sequence (P28074 60-263): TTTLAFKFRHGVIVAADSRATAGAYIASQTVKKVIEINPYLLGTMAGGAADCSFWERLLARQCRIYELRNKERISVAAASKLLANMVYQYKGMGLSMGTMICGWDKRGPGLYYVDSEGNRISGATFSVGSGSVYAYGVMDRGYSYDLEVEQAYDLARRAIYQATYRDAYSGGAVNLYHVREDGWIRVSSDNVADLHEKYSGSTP
T1 sequence (Q99436 44-277): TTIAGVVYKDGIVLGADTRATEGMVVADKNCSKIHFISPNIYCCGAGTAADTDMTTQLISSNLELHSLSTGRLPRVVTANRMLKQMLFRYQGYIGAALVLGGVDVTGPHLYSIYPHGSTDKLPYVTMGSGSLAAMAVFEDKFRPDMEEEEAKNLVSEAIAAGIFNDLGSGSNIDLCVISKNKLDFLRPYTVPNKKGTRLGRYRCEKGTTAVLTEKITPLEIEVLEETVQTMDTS
T1 sequence (P28072 1-239): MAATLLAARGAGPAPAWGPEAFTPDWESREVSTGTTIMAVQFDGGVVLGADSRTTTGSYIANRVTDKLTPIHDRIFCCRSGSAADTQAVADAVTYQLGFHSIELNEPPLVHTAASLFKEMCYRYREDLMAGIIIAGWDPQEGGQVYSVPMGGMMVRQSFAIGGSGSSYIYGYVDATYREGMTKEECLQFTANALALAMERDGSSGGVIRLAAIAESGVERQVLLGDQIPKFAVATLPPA
Method: The activity of the 26S proteasome was measured by following steps. Aliquots of 2×10^6 cells were lysed with glass beads (Sigma) at 4° C. in lysis buffer containing 50 mM Tris-HCl (pH 7.5), 5 mM MgCl2, 1 mM DTT and 250 mM sucrose, and the protein concentration of cleared supernatants was measured by BCA protein assay reagent (Pierce). Ten micrograms of total protein was diluted with 26S proteasome assay buffer in a 96-well microtiter plate (BD Falcon), and incubated with fluorogenic substrates including Suc-LLVY-AMC, Z-LLE-AMC, and Ac-RLR-AMC Ac-RLR-AMC (Cayman-U.S.A.) were used to measure chymotrypsin, caspase-, and trypsin-like proteasome activity, respectively. Fluorescence released by AMC fluorescence was monitored on a microplate fluorometer (Biotek instrument-synergy HT) every 5 min at 37° C. for 1 h.

proteasome [1] = biological target: T2, proteasome (Homo sapiens, UniProt P28072+P28074+Q99436); assay: In-Cell Fluorogenic Proteasome Assay, T98G; assay type: cell-based; design: endogenous in cells; host or cells: T98G (A10), digitonin/Tween-permeabilised whole cells; conditions: whole T98G cell
T2 sequence (P28074 60-263): T1 sequence (P28074 60-263)
T2 sequence (Q99436 44-277): T1 sequence (Q99436 44-277)
T2 sequence (P28072 1-239): T1 sequence (P28072 1-239)
Method: (§1) For a 96-well plate format, 8×10^3 cells per well were seeded. 24 hours later medium was changed with NMDAR blocker containing medium. Two hours later 100 μl of 2× flourescence cell buffer: (1 ml 1M tris hcl ph: 7.5, 500 μl 1M KCL, 200 μl […], 200 μl 0.1M MgCL2, 50 μl % 0.2 tween 20, 75 μl digitonin 20 mg/ml in DMSO ChemCruz cat no: sc-280675, 10 μl flourescence substrates including Suc-LLVY-AMC, Z-LLE-AMC, and Ac-RLR-AMC Ac-RLR-AMC, 8.1 ml H2O). After incubation at room temperature for a 5 minutes the flourescence of each sample were measured in a flourescence spectrometer (Biotek instrument-Synergy HT).

[2] = test system: primary human fibroblast cells; assay: SA β-gal staining of primary human fibroblast cells; assay type: cell-based; conditions: passage 10
Text: (§2) First, primary human fibroblast cells were divided into two as control and NMDAR added group at the 4th passage and followed under the same condution until the 10th passage.
Therefore cellular senescence were investigated by SA β-gal staining in cells at passage 10.

proteasome [3] = biological target: T2, proteasome; assay: In-Cell Fluorogenic Proteasome Assay, HepG2; assay type: cell-based; design: endogenous in cells; host or cells: HepG2 (A9), T98G (A10), digitonin/Tween-permeabilised whole cells; conditions: for trypsin, chemotrypsin and caspase-like proteasome activities: whole HepG2 cell
Method: as §1

[4] = test system: primary human fibroblast cells; assay: Nile red staining of lipid droplets in primary fibroblast cells; assay type: cell-based; conditions: late passage
Text: In another experiment, the amount of intracellular lipid droplets as indicator of fat metabolism were investigated in senescent cells with nile red staining in cells at the late passage. Nile red is a lipophilic stain which stain intracellular lipid droplets and proteins. Lipid droplets are highly dinamic cellular organelles involved in the storage and the metabolism of neutral lipids.

[5] = test system: primary human fibroblast cells; assay: MTT assay of primary human fibroblast cells; assay type: cell-based; conditions: cells set up at passage 8
Text: as §2
Cellular senescence is defined as a complete and irreversible loss of replicative capacity in primary somatic cells. (hayflick 1961). Therefore, MTT assay is used to measure cellular metabolic activity as an indicator of cell viability and proliferation in cells set up at passage 8.

oxidized proteins = assay: Oxidation status of proteins in mouse tissues (DNP-hydrazone western blot); assay type: in vivo; conditions: 24 month old mice
mice = assay: Color change and condition of fur of aged mice; assay type: in vivo; conditions: 22 months of age; 3 mg/Kg/per day with drinking water
Text: Ten mice, one year old, were supplied for the study. The mice were divided into two groups and one added memenatine to their drinking water, while the other group was designated as the control group. Mice were followed until they were 2 years old. Clinical frailty tests were investigated and compared in the two groups of mice at 22 months. The simplest and most easly determined findings of clinical signs of deterioration in aging mice are the evaluation of changes in mouse skin.
The experimental protocols were approved by the Ethics Committee of Ankara University, Faculty of Medicine, Medical Sciences Experimental Research and Application Center (Date: Dec. 11, 2019 and Decision number: 2019-22-189). Adult (12-mounts-old) C57BL/6 mice (5 for each group) were used. The mice were housed at the Experimental Animal Research Laboratory of Ankara University Faculty of Medicine. Food and water were given without restriction. The ambient temperature was kept at 21±2° C., and locomotor activity tests were performed at this temperature. The animals were housed in a room with a 12-hour light/dark cycle. The procedures in the study were performed in accordance with the Ankara University Animal Care Committee according to international guidelines. […] Tests related to locomotor activities of the mice were recorded and available.

CNC1(c2ccccc2Cl)CCCCC1=O (centres unmarked) [ketamin, 2-(2-chlorophenyl)-2-(methylamino)-cyclohexanone]
trypsin, chemotrypsin and caspase-like proteasome activity (26S proteasome): no effects
trypsin, chemotrypsin and caspase-like proteasome activities (proteasome [1]): increased
SA β-gal stained cells, control cells compared to treated cells [2]: 2.6 fold
trypsin, chemotrypsin and caspase-like proteasome activities (proteasome [3]): increased
chemotrypsin activity of proteasome (proteasome [3]; whole cell, substance alone): depending on the amount of the drugs
Nile red flourescence (intracellular lipid droplets) [4]: more flourescence
proliferation (MTT assay) [5]: higher

CC12CC3CC(C)(C1)CC(N)(C3)C2 [memantine, 3,5-dimethyladamantan-1-amine]
oxidation of protein from lung tissue (oxidized proteins): No significant change
Oxidized proteins in liver, brain, kidney, skin and pancreas (oxidized proteins; memantin for 12 months): reduced
color change and condition of mouse fur (mice): very different in favor of those who received memantine
trypsin, chemotrypsin and caspase-like proteasome activity (26S proteasome): no effects
trypsin, chemotrypsin and caspase-like proteasome activities (proteasome [1]): increased
SA β-gal stained cells, control cells compared to treated cells [2]: 1.8 fold
chemotrypsin activity of proteasome in the presence of RA190 (proteasome [3]; HepG2): very similar to the ketamin results
trypsin, chemotrypsin and caspase-like proteasome activities (proteasome [3]): increased
Nile red flourescence (intracellular lipid droplets) [4]: more flourescence
proliferation (MTT assay) [5]: higher
